{"source": "paper PMC9405102", "about": "“Targeted Modification and Structure-Activity Study of GL-29, an Analogue of the Antimicrobial Peptide Palustrin-2ISb” (Antibiotics, 2022)", "key": {"[1]": {"system": "S. aureus (ATCC CRM 6538)", "experiment": "SYTOX Green dye uptake membrane permeability assay", "format": "cell-based, Staphylococcus aureus", "conditions": "4 μM peptide, 2 h", "procedure": "Bacteria were inoculated into TSB medium (Gram-positive bacteria) or LB medium (Gram-negative bacteria) at 37 °C overnight, and then sub-cultured at 37 °C for about 2.5 h. Subsequently, the cell cultures were centrifuged at 1000× g at 4 °C for 10 min to collect bacteria cells at the bottom. After the cells were washed twice with 5% TSB or 5% LB in 0.85% NaCl solution, they were resuspended with 5% TSB or 5% LB in 0.85% NaCl solution to obtain a cell concentration of 1 × 10^8 CFU /mL by measuring the optical density (OD) value at 590 nm (Gram-positive bacteria: 0.68–0.72, Gram-negative bacteria: 0.65–0.7). The cell suspensions were then mixed with peptides at a range of concentrations, according to the MIC of antimicrobial assays, in a black 96 well plate and incubated for 2 h at 37 °C. After the incubation, the cells were stained with SYTOX^TM Green Nucleic Acid Stain (Thermo Fisher Scientific, Waltham, MA, USA) dissolved in 5% TSB in 0.85% NaCl to a final concentration of 5 μM and placed in a shaking incubator for 5 min avoiding from light. Bacterial cells treated with 16 μM melittin were used as positive control. The fluorescence intensity was measured with a Synergy HT plate reader (BioTek, USA) at excitation and emission wavelengths of 485 and 528 nm, respectively."}, "C. albicans": {"system": "C. albicans", "parameters": "method as in PMID 21911019", "conditions": "C. albicans; cited from earlier work"}, "[2]": {"system": "human keratinocyte cell line, HaCaT", "format": "cell-based", "conditions": "24 h", "procedure": "(§1) The proliferative inhibition effect of GL-29 and its analogues were assessed by MTT assay as described in a previous study. HaCaT cell line (human keratinocytes) and four cancer cell lines, U251MG (human glioblastoma astrocytoma cell line), HCT116 (human colon cancer cell line), H157 (human non-small lung cancer cell line) and H838 (human lung carcinoma cancer cell line), were used in this assay. A total of 8000 cells/per well were seeded in the 96-well plate for 24 h and then treated with peptides at the concentration from 100 μM to 100 nM for 24 h. In this assay, 1% Triton X-100 and PBS were set as a positive and negative control, respectively. After which, the formazan was dissolved in DMSO and the OD value was detected by use of a Synergy HT plate reader (BioTek, Minneapolis, MN, USA) at λ = 570 nm.\n(§2) Data were analysed using Prism (Version 8.2.1; GraphPad Software, Inc, San Diego, CA, USA). Error bars in the graphs represented standard errors of means (SEM) of nine repeats from three independent tests. The statistical significance was calculated using two-way ANOVA and is indicated as ns (non-significant difference), * (p < 0.05), ** (p < 0.01), *** (p < 0.001), ****(p < 0.0001). The HC10, HC50 and IC50 values were calculated using the online tool AAT Bioquest (https://www.aatbio.com/index.html, accessed on 6 May 2022)."}, "horse erythrocytes": {"system": "horse erythrocytes", "format": "cell-based", "conditions": "red cells of horse, 2 h", "procedure": "The haemolysis assays were performed by incubating prewashed erythrocyte suspension obtained from fresh defibrinated horse blood (TCS Biosciences Ltd., Buckingham, UK) with a range of peptides at final concentrations from 512 to 1 μM, for 2 h at 37 °C. The red cell suspensions were washed with phosphate-buffered saline (PBS) until the supernatant was clear and then diluted with PBS to form a 2% cell suspension. Peptides were 2-fold diluted by the 2% cell suspension to reach the final concentration range from 512 to 1 μM. The haemolysis of the cell suspensions with either 1% (v/v) Triton X-100 or PBS, were considered as positive controls and negative controls, respectively. After incubation, the extent of haemolysis was determined by measuring the absorbance of the supernatant from each sample at 570 nm with a Synergy HT plate reader (BioTek, USA).\nas §2"}, "[3]": {"system": "P. aeruginosa (ATCC CRM 9027)", "format": "cell-based, Pseudomonas aeruginosa", "procedure": "The MBIC and MBEC assays were performed to measure the inhibition and eradication of bacterial biofilm in the presence of different concentrations of peptides. Gram-positive bacteria were inoculated in Luria–Bertani (LB) broth at 37 °C overnight whereas Gram-negative bacteria were inoculated in tryptic soy broth (TSB), and then sub-cultured until reaching the logarithmic growth phase by measuring the OD values at a wavelength of 550nm. For the MBIC assay, 99 µL of diluted bacterial suspension (5 × 10^5 CFU/mL) was mixed with 1 µL of prepared peptide solutions in the wells of a round-bottomed 96-well plate, achieving the final concentrations from 512 to 1 µM, and then incubated at 37 °C for 24 h in a shaking incubator at 200 revolutions per minute (rpm). After this, the plate was washed twice by PBS and fixed with methanol for 30 min. For MBEC assay, 100 µL of diluted bacterial suspension (5 × 10^5 CFU/mL) was seeded into a round-bottomed 96-well plate and incubated at 37 °C for 24 h in a shaking incubator at 200 rpm to obtain mature biofilm. After this, plates were washed twice by PBS and incubated with different concentrations of peptide solution from 512 to 1 µM at 37 °C for 24 h. Afterwards, the plate was washed twice with PBS and fixed with methanol for 30 min. Then, both MBIC and MBEC plates were stained by 130 μL of 0.1% (g/v) crystal violet solutions for 30 min and washed with PBS until no apparent staining was observed. Evaporating crystal violet stains were dissolved by 33% (v/v) acetic acid, and the absorbance values were measured by a Synergy HT Microplate Reader (BioTek, Minneapolis, MN, USA) set to 595 nm. The minimum concentration that inhibited the formation of biofilm was defined when compared to the negative control group, as the MBIC. The minimum concentration that eradicated the biofilm was defined, when compared to the negative control group, as the MBEC. The biofilm assays were performed in triplicate."}, "HCT116": {"system": "HCT116", "experiment": "MTT antiproliferative assay", "format": "cell-based, human", "procedure": "as §1, §2"}, "H838": {"system": "H838", "experiment": "MTT antiproliferative assay", "format": "cell-based, human", "procedure": "as §1, §2"}, "U251MG": {"system": "U251MG", "experiment": "MTT antiproliferative assay", "format": "cell-based, human", "procedure": "as §1, §2"}}, "note": "Like-named read-outs stand apart in the source and are kept apart here. Where a SMILES comes first, the peptide text is derived from it. Where no end group is shown, it is not given here."}
{"molecule": "CC[C@H](C)[C@H](NC(=O)[C@H](CCCCN)NC(=O)[C@@H](NC(=O)[C@H](CO)NC(=O)[C@H](CC(N)=O)NC(=O)[C@H](Cc1c[nH]c2ccccc12)NC(=O)[C@H](CC(C)C)NC(=O)CN)[C@@H](C)CC)C(=O)N[C@@H](C)C(=O)NCC(=O)N[C@@H](CCCCN)C(=O)N[C@@H](CCCCN)C(=O)N[C@@H](CC(C)C)C(=O)N[C@@H](Cc1ccccc1)C(=O)N[C@H](C(=O)N[C@@H](CC(N)=O)C(=O)N[C@H](C(=O)N[C@@H](CC(C)C)C(=O)N[C@@H](CC(=O)O)C(=O)N[C@@H](CCCCN)C(=O)N[C@H](C(=O)N[C@@H](CCCNC(=N)N)C(=O)N[C@H]1CSSC[C@@H](C(=O)O)NC(=O)CNC(=O)CNC(=O)[C@H](C)NC(=O)[C@H](C(C)C)NC(=O)[C@H](CCCCN)NC1=O)[C@@H](C)CC)C(C)C)C(C)C", "note": "[GL-29] (HELM PEPTIDE1{G.L.W.N.S.I.K.I.A.G.K.K.L.F.V.N.V.L.D.K.I.R.C.K.V.A.G.G.C}$PEPTIDE1,PEPTIDE1,23:R3-29:R3$$$V2.0; N-terminus and C-terminus assumed; bridges inferred)", "values": [{"measurement": "membrane permeabilisation (SYTOX Green uptake)", "setting": "[1]", "value": 100, "unit": "%"}, {"measurement": "MIC", "setting": "C. albicans", "value": 100, "unit": "µM"}, {"measurement": "IC50", "setting": "[2]", "value": 5.05, "unit": "µM"}, {"measurement": "HC10", "setting": "horse erythrocytes", "value": 5.86, "unit": "µM"}, {"measurement": "HC50", "setting": "horse erythrocytes", "value": 33.03, "unit": "µM"}, {"measurement": "MBEC", "setting": "[3]; ATCC CRM 9027, 24 h", "value": "> 512", "unit": "µM"}, {"measurement": "MBIC", "setting": "[3]; ATCC CRM 9027, 24 h", "value": 64, "unit": "µM"}]}
{"molecule": "GLWNSIKIAGKKLFVNVLDKIR-NH2 [GL-22]", "values": [{"measurement": "IC50", "setting": "[2]", "value": 38.9, "unit": "µM"}, {"measurement": "IC50", "setting": "HCT116; HCT116, MTT, 24 h", "value": 129, "unit": "µM"}, {"measurement": "IC50", "setting": "H838; H838, MTT, 24 h", "value": 25.2, "unit": "µM"}, {"measurement": "IC50", "setting": "U251MG; MTT, 24 h", "value": 40.6, "unit": "µM"}, {"measurement": "HC10", "setting": "horse erythrocytes", "value": 87.304, "unit": "µM"}, {"measurement": "HC50", "setting": "horse erythrocytes", "value": 254.11, "unit": "µM"}, {"measurement": "MBEC", "setting": "[3]; ATCC CRM 9027, 24 h", "value": "> 512", "unit": "µM"}, {"measurement": "MBIC", "setting": "[3]; ATCC CRM 9027, 24 h", "value": 128, "unit": "µM"}]}
{"molecule": "GLWNSIKIA-NH2 [GL-9, GLWNSIKIA-NH2]", "values": [{"measurement": "inhibition of proliferative activity", "setting": "HCT116; HCT116, 100 µM (highest concentration)", "value": "20–40%"}, {"measurement": "inhibition of proliferative activity", "setting": "H838; H838, 100 µM (highest concentration)", "value": "20–40%"}, {"measurement": "inhibition of proliferative activity", "setting": "U251MG; 100 µM (highest concentration)", "value": "20–40%"}, {"measurement": "MBEC", "setting": "[3]; biofilm eradication, P. aeruginosa (ATCC CRM 9027)", "value": ">512", "unit": "µM"}, {"measurement": "MBIC", "setting": "[3]; biofilm formation, P. aeruginosa (ATCC CRM 9027)", "value": ">512", "unit": "µM"}]}
